From patent US20100286219A1, “1, 3-Dihydroimidazoles for Treating Cardiovascular Disorders” (BIAL - PORTELA & CA S.A., priority 2007, published 2010) come the findings set out here.

One data set deals with T1, human DβH (Homo sapiens, UniProt P09172).
T1 construct: endogenous in cells; host or cells: SK-N-SH cells
T1 sequence (P09172 1-617): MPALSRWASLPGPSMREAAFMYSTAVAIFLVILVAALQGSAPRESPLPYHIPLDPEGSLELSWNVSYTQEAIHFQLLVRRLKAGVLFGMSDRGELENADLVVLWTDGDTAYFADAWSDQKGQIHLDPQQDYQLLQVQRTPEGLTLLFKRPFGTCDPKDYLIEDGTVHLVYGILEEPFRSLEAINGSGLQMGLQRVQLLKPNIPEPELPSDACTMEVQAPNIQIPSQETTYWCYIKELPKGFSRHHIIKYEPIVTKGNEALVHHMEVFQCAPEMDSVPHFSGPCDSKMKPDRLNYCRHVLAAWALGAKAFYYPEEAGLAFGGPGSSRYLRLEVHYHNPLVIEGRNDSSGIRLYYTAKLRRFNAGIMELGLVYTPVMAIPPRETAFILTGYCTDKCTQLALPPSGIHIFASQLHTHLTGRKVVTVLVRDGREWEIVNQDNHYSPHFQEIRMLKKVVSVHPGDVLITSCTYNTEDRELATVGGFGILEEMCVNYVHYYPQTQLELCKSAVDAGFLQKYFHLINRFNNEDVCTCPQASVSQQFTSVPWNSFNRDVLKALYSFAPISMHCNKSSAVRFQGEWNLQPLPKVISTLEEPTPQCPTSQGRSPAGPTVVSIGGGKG
Description: DβH activity in SK-N-SH cells (β-hydroxylation of dopamine to noradrenaline). Format: cell-based.

Data set [1] has as its target T2, DβH (Rattus norvegicus, UniProt Q05754).
T2 construct: noradrenaline levels in the rat heart (left atrium and left ventricle) and brain (frontal and parietal cortex); from tissue; host or cells: rat heart (left atrium, left ventricle) and brain (frontal and parietal cortex), in vivo
T2 sequence (Q05754 1-620): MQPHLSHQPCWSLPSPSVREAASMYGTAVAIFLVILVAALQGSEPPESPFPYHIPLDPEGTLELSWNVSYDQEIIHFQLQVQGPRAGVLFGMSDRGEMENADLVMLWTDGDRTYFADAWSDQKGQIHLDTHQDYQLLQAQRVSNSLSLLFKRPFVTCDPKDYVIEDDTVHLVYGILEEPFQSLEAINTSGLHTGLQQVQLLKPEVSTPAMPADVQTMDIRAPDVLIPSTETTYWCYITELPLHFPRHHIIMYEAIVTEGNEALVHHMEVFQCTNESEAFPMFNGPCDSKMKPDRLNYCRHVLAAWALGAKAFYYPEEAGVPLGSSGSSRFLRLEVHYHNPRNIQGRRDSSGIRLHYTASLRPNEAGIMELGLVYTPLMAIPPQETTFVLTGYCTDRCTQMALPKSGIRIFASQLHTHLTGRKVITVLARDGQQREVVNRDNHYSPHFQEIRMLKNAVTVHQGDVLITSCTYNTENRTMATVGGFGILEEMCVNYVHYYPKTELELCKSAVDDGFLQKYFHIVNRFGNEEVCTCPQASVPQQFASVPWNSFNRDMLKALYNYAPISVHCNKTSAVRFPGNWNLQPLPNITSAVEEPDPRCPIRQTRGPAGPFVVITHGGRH
Nature of the data set: Noradrenaline tissue levels in rat heart and brain after oral administration. Format: in vivo. Here is the method:
FIG. 3 is four graphs showing noradrenaline levels in the rat heart (left atrium and left ventricle) and brain (frontal and parietal cortex) 9 h after the oral administration of 4 or nepicastat 1. Columns are means of 5 determinations per group; vertical lines indicated S.E.M.

In data set [2] the target is T3, DβH (Mus musculus, UniProt Q64237).
T3 construct: noradrenaline levels in the mouse left ventricle and brain parietal cortex 9 h after oral administration; from tissue; host or cells: mouse left ventricle and brain parietal cortex (in vivo)
T3 sequence (Q64237 1-622): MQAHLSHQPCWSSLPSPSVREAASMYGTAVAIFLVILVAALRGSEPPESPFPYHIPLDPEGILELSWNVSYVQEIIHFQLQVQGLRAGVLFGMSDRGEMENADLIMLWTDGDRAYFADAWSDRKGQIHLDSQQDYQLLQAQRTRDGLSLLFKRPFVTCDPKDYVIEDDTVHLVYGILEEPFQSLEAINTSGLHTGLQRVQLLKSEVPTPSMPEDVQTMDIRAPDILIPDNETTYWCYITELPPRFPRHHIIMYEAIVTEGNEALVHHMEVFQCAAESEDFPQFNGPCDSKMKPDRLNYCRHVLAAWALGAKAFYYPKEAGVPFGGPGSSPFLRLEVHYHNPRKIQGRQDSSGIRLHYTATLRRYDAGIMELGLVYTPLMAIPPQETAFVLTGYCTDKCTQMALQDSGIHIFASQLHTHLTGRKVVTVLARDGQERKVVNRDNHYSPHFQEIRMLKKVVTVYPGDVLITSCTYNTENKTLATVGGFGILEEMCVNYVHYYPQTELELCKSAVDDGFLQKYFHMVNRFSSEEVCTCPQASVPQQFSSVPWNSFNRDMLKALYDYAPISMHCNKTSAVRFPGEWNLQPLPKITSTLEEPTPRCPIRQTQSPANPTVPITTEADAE
Description: Noradrenaline tissue levels in mouse heart and brain after oral administration. Format: in vivo. Here is the method:
FIG. 1 is a graph showing the time-dependent decrease of noradrenaline levels in the left ventricle of mice treated orally with 100 mg/kg of 4 or nepicastat 1. Symbols are means of 5 determinations per group; vertical lines indicate S.E.M.
FIG. 2 is two graphs showing noradrenaline levels in the mouse left ventricle and brain parietal cortex 9 h after oral administration of 4 or nepicastat 1. Symbols are means of 5 determinations per group; vertical lines indicate S.E.M.
Time of maximum effect (Tmax) for noradrenaline tissue reduction by both 4 and 1 appears to be at 9 h post-dose (FIG. 1). Thereafter, noradrenaline tissue levels recover, reaching 50% recovery of initial tissue levels at 24 h.
For both 4 and 1, the maximal inhibitory effect was attained at a dose of 100 mg/kg.

Substrate in data set [3]: NCCc1ccc(O)c(O)c1
Description: cells, lysate or membranes. As to conditions: other: SK-N-SH cells, increasing concentrations of dopamine.

[4] abbreviates: mouse, 9 h after oral administration.

Take `Cl.NCCc1c[nH]c(=S)n1[C@H]1COc2c(F)cc(F)cc2C1` [Compound 4, (R)-5-(2-aminoethyl)-1-(6,8-difluorochroman-3-yl)-1,3-dihydroimidazole-2-thione hydrochloride]: at human DβH (as listed in Table 1, 5 μM), the “inhibition of DβH activity (in words)” value is given as “markedly inhibit”. Moreover, at human DβH (concentration-dependent decrease in β-hydroxylation of dopamine), the “IC50 against human DβH activity (in words)” value is reported as “low nM range”. For the same molecule, on DβH [1] (concluded from mouse and rat studies), the “site of DβH inhibition, periphery versus brain (conclusion)” value is “exclusively in the periphery, being devoid of inhibitory effects in the brain”. Moreover, on DβH [1] (rat (data not shown)), the “dose dependence of effect upon noradrenaline” value is reported as “dependent on the dose administered” and the “time of maximum effect upon noradrenaline” value was 9 h. Also, the “inhibitory effect upon noradrenaline levels in left atrium and left ventricle” value on DβH [1] (rat, 100 mg/kg oral, 9 h, compared with 1 (100 mg/kg)) is on record as “more pronounced than those elicited by 1”. The “effect on noradrenaline tissue levels in brain parietal cortex and brain frontal cortex” value at DβH [1] (rat, 9 h after oral administration) is given as “failed to affect”. The “Time of maximum effect (Tmax) for noradrenaline tissue reduction” value on DβH [2] (mouse heart (left ventricle), 100 mg/kg oral) is given as 9 h. Moreover, the “recovery of initial noradrenaline tissue levels” value on DβH [2] (mouse heart, 100 mg/kg, at 24 h) is 50%. Besides, on DβH [2] (mouse heart, time course at 100 mg/kg), the “duration of action (in words)” value was “long acting”. At DβH [2] (mouse left ventricle noradrenaline, 9 h after administration), the “dose at which maximal inhibitory effect was attained” value is on record as 100 mg/kg. Besides, on DβH [2] (setting [4]), the “effect on noradrenaline levels in left ventricle” value is recorded as “reduced noradrenaline levels in a dose-dependent manner” and the “effect on noradrenaline tissue levels in brain parietal cortex” value was “failed to affect”.

B1: human DβH (Homo sapiens) (protein)
chain: MPALSRWASLPGPSMREAAFMYSTAVAIFLVILVAALQGSAPRESPLPYHIPLDPEGSLELSWNVSYTQEAIHFQLLVRRLKAGVLFGMSDRGELENADLVVLWTDGDTAYFADAWSDQKGQIHLDPQQDYQLLQVQRTPEGLTLLFKRPFGTCDPKDYLIEDGTVHLVYGILEEPFRSLEAINGSGLQMGLQRVQLLKPNIPEPELPSDACTMEVQAPNIQIPSQETTYWCYIKELPKGFSRHHIIKYEPIVTKGNEALVHHMEVFQCAPEMDSVPHFSGPCDSKMKPDRLNYCRHVLAAWALGAKAFYYPEEAGLAFGGPGSSRYLRLEVHYHNPLVIEGRNDSSGIRLYYTAKLRRFNAGIMELGLVYTPVMAIPPRETAFILTGYCTDKCTQLALPPSGIHIFASQLHTHLTGRKVVTVLVRDGREWEIVNQDNHYSPHFQEIRMLKKVVSVHPGDVLITSCTYNTEDRELATVGGFGILEEMCVNYVHYYPQTQLELCKSAVDAGFLQKYFHLINRFNNEDVCTCPQASVSQQFTSVPWNSFNRDVLKALYSFAPISMHCNKSSAVRFQGEWNLQPLPKVISTLEEPTPQCPTSQGRSPAGPTVVSIGGGKG
Take B1: in data set [3], the Michaelis-Menten constant (Km) was found to be 20.6 ± 1.6 µM and the Vmax is 153.8±4.4 nmol mg protein-1 h-1.

In general, Km refers to the substrate concentration at which the rate is half of its maximum.
